Tests used:
[1] = test system: ribosomal S6 protein and MDM2; assay: Immunoblot of ribosomal S6 protein and MDM2 phosphorylation (mTORC1/p70S6K signaling); assay type: cell-based, human; conditions: agent added to NRTI-exposed cardiac fibroblasts
Protocol: Cell culture experiments utilizing NRTIs were of the following design. Cultures of either human lung or cardiac fibroblasts were cultivated according to standard culture protocols for these cells (Cristofalo, et al., Journal of Tissue Culture Methods 1980, 6:117-121). Parallel sets of cultures were maintained in normal growth media or in normal growth media with the addition of 1 nM rapamycin. Cultures were maintained with 1 nM rapamycin (Enzo Biologicals) for two weeks before exposure to NRTIs. Cell cultures were exposed to NRTIs at indicated concentrations in individual experiments (generally 10-20 μg/ml) for 7 days, with a change of media and fresh NRTIs at day 4. Mitochondrial measurements, bioanalyzer measurements, immunoblotting for protein expression and phosphorylation status, and assays for senescence were performed at the end of this 7-day period.
Cell culture reagents were from Cellgro, unless indicated. WI-38 fetal-lung primary human fibroblasts or human cardiac fibroblasts were grown in MEM supplemented with 10% fetal bovine serum, 1% L-glutamine, MEM vitamins, and MEM non-essential amino acids. Cells were maintained in a 37° C. in 5% CO2 incubator. For treatment studies, cells were treated with 1 nM rapamycin (Enzo Biologicals) for two weeks before treatment with NRTIs. Cells were maintained by trypsinization and reseeding at a cell density of 1×10^4/cm^2 every 7 to 10 days. Emtricitabine (FTC) and tenofovir disoproxil fumarate (TDF) were kindly provided by the NIH AIDS Research & Reference Reagent program. During the 7-day exposure to the NRTIs, the pharmacologic inhibitors PD98059 (10 μM, Santa Cruz Biotechnologies), BI-D1870, GW5074, and SB203580 (10 μM, Enzo Biologicals) were added to the culture medium either during the final 48 hours or for the final 2 hours depending upon the experiment. During the 7-day exposure to NRTIs, Trolox (500 μM) and N-acetylcysteine (100 μM, Acros Organics) were added every other day. Mito-Q (20 nM) and TPP (20 nM) were kindly provided by Dr. Brett Kaufmann at the University of Pennsylvania School of Veterinary Medicine. Vector and mt-catalase adenoviruses (MOI's 25, 50, and 75) were purchased from Gene Transfer Vector Core from the University of Iowa.
Cell protein extracts were prepared by extracting with radioimmunoprecipitation assay (RIPA) buffer containing a protease inhibitor cocktail (Sigma-Aldrich) and phosphatase inhibitors, NaF and sodium orthovanadate. Protein concentration was quantified using a bicinchoninic acid (BCA) assay (Pierce Biotechnology). Western blot analysis was performed using 15 to 30 μg of protein extracts that were run on SDS-PAGE and transferred onto nitrocellulose (Biorad) membranes. Blots were incubated with antibodies specific for: beta-actin (Sigma-Aldrich), TFAm, parkin, p16, phospho(S82)HSP27, HSP27 (Santa Cruz Biotechnologies), p53, 21, catalase, MDM2 (EMD Millipore), VDAC, phospho(S235/236)-ribosomal protein S6, ribosomal protein S6, phospho(S166)-MDM2, phospho(5473)-AKT, AKT, beta-tubulin (Cell Signaling), p62 (Enzo Biologicals), IL-6 (NeoBiolab), lamin B1, PINK1, and Mitoprofile Total OXPHOS Cocktail (complex I-NDUFB8 subunit, CII-SDHB subunit, […]2 subunit, and CIV-mitochondrial COX1 subunit) (Abcam) according to manufacturers' instructions. Western blots were visualized using IRDye 680 and 800 LI-COR secondary antibodies on a LI-COR Odyssey using LI-COR Odyssey software version 3.0 (LI-COR Biosciences). For co-immunoprecipitation, cell protein extracts were prepared in HNTG buffer containing a protease inhibitor cocktail and quantified using BCA assay. Protein extracts at the concentration of 0.5 mg were pre-cleared with protein A/G beads (Santa Cruz Biologicals) for 30 minutes. After centrifugation at 2,000 rpm for 5 minutes at 4° C., the supernatant was incubated with the primary antibody at manufacturer's recommended concentration overnight at 4° C. An IgG antibody (Cell Signaling) was used as a non-specific control.

[2] = test system: seborrheic keratosis lesion; assay: Topical treatment of a seborrheic keratosis lesion; assay type: in vivo, human; conditions: 21 days, 10 μM rapamycin in an emulsified gel preparation
Protocol: FIG. 20 is a photograph of a seborrheic keratosis lesion before and after 21 days of treatment with 10 μM rapamycin in an emulsified gel preparation as in FIG. 19.

CO[C@H]1C[C@@H]2CC[C@@H](C)[C@@](O)(O2)C(=O)C(=O)N2CCCC[C@H]2C(=O)O[C@H]([C@H](C)C[C@@H]2CC[C@@H](O)[C@H](OC)C2)CC(=O)[C@H](C)/C=C(\C)[C@@H](O)[C@@H](OC)C(=O)[C@H](C)C[C@H](C)/C=C/C=C/C=C/1C [rapamycin]
MDM2 phosphorylation in cells exposed to NRTIs [1]: no increase
ribosomal S6 phosphorylation in cells exposed to NRTIs [1]: complete lack
severity of seborrheic keratosis lesion, visual inspection [2]: significant reduction in severity

— patent US12714698B2, “Compositions and methods for treating or preventing dermal disorders” (Drexel University, priority 2015, dated 2026)
